Data: article PMC6992764 (Nature Communications, 2020)

What was measured:
LLC tumor cells [1] = tested on: LLC tumor cells
LLC tumor cells [2] = experiment: LLC tumor cell growth (WST-1 assay); format: cell-based; settings: 48 h
Experimental: (§1) To evaluate the effects of compounds on cell growth, cells were incubated with inhibitors for 48 h, then WST-1 (Dojindo) was added to the culture for the final 30 min. An Envision instrument (PerkinElmer) was used to measure the absorbance of each well at 450 nm versus a 650-nm reference to detect the amount of formazan produced from WST-1 by mitochondrial dehydrogenases in viable cells.

B16 tumor cells [3] = experiment: B16 tumor cell growth (WST-1 assay); format: cell-based; settings: B16, 48 h
Experimental: as §1

B16 tumor cells [4] = tested on: B16 tumor cells
[5] = tested on: monocyte (CD11b+Gr-1-Ly-6C+) chemotaxis to CCL2; experiment: Flow cytometry-based chemotaxis assay; format: cell-based, mice; settings: 20 µM wortmannin pre-incubation
Experimental: Bone marrow cells were mechanically flushed from the femurs and tibias of Frount-floxed mice and FROUNT-cKO mice. After incubation in ammonium chloride to lyse red blood cells, nucleated cells were incubated with the following antibodies: PE-conjugated Gr-1 (clone RB6-8C5, dilution 1:400, Cat 553128), Pacific blue-conjugated Ly-6C ([…], dilution 1:400, Cat 128014), and allophycocyanin-conjugated CD11b (clone M1/70, dilution 1:400, Cat 101212). Cells were washed and adjusted to 2 × 10^7 cells mL^−1 in chemotaxis buffer. Cells were pre-incubated with 20 μM wortmannin before the assay as necessary. The chemokines murine CCL2 (Peprotech) were added to the lower chamber and 25 μL of cell suspension was added to the upper chamber of a 5-μm pore-sized chemoTX plate. After incubation at 37 °C under 5% CO2 atmosphere for 90 min, migrated cells were collected and cell populations were determined by surface expression of stained antibody in each population using a Gallios flow cytometer (Beckman coulter). Data are expressed as a migration index (number of migrated cells in the presence of chemoattractant divided by the cell number in the absence of chemokine).

peritoneal macrophages = experiment: CCL2-induced pseudopodia protrusion of macrophages; format: cell-based, mice; settings: 25 µM, 1 h pre-incubation
Experimental: Peritoneal macrophages were isolated from mice, seeded in the 8-well glass-based dishes (Life Technologies) and incubated overnight at 37 °C to allow the cells to adhere. After serum starvation for 6 h, cells were stimulated with chemokine at a concentration of 100 ng mL^–1, then fixed with 4% paraformaldehyde (Wako) and permeabilized with 0.1% Triton X-100 (Wako) in PBS, followed by staining with phalloidin conjugated with Alexa Fluor 594 (Life Technologies). […] Tumor macrophages were isolated from collagenase digestion of tumor tissue as attached cells by washing non-adherent cells away and further culturing them in DMEM containing 10 nM M-CSF (BD Biosciences) and 10% serum. After co-culture with LLC tumor cells, confocal images were obtained using an SP5 confocal microscope (Leica Microsystems). Cells were classified as lamellipodial/round-shaped or filopodial based on their morphology and the ratio of each type in the visual field determined.

ALDH = ALDH activity assay (ALDEFLUOR); format: cell-based, human; settings: THP-1 cells, 33 µM, 30 min
Experimental: THP-1 cells were incubated for 30 min with medium containing DMSO or inhibitors at the concentration of 33 μM then washed and incubated with ALDEFLUOR reagent ([…] Technologies) in assay buffer according to the manufacturer’s instruction. Fluorescence derived from substrate metabolized by cellular ALDH were measured by Gallios cytometer.

FROUNT-CCR2 interaction = target: T1, FROUNT-CCR2 interaction (Homo sapiens, UniProt Q9BW27); experiment: HTRF FROUNT-CCR2 interaction assay; format: binding; settings: HTRF
T1 construct: GST-fused FROUNT (FNT-C)
T1 sequence (Q9BW27 500-656 limits assumed): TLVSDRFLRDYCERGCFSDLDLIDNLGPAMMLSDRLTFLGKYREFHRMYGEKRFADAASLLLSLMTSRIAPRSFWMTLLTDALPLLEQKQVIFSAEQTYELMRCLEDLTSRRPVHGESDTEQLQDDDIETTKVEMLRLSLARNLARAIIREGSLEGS

THP-1 cells = experiment: Chemotaxis inhibition assay (chemoTX chamber, CCL2); format: cell-based, human; settings: towards CCL2, 90 min
Experimental: Chemotaxis was measured in a 96-well chemoTX chemotaxis chamber with a polycarbonate filter (5-μm pore size) (Neuro probe). Human CCL2 (R&D Systems) was added to the lower chamber of the plate and the cells were added to the upper chamber. After incubation at 37 °C and 5% CO2 for 90 min, the filter was removed and the number of migrated cells in the lower chamber was counted using a cell counting kit F (Dojindo). Data are expressed as migration efficiency (percentage of the maximal migration).

[6] = target: T2, CRBD of FROUNT (a.a. 532-656) bearing the L538E/P612S mutations (Homo sapiens, UniProt Q9BW27, L538E/P612S); experiment: NMR titration (1H-15N HSQC) of CRBD of FROUNT; format: binding; settings: 12.5-50 µM compound, 50 µM CRBD
T2 construct: 50 µM CRBD of FROUNT (a.a. 532–656) bearing the L538E/P612S mutations or its mutant (C603S); made in house
T2 sequence (Q9BW27 532-656 L538E/P612S): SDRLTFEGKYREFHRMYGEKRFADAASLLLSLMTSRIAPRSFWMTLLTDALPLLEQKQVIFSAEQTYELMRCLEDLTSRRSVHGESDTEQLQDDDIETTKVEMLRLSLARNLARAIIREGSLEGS
Experimental: All ^1H–^15N heteronuclear single quantum correlation (HSQC) NMR spectra were measured at 25 °C on a Bruker 600-MHz AVANCE III spectrometer with a cryogenic probe. […] The assignments of the backbone ^1H^N and ^15N NMR signals of CRBD were performed, based on the previous paper. […] Combined chemical shift differences Δδ was calculated by Δδ = [(ΔδHN)^2 + (ΔδN/6.5)^2]^1/2, where ΔδHN and ΔδN are the chemical shift differences for ^1H^N and ^15N, respectively.

[7] = target: T3, Full-length FROUNT protein (Homo sapiens, UniProt Q9BW27); experiment: Surface plasmon resonance binding to FROUNT; settings: SPR, concentration-dependent
T3 construct: made in house
T3 sequence (Q9BW27 1-656): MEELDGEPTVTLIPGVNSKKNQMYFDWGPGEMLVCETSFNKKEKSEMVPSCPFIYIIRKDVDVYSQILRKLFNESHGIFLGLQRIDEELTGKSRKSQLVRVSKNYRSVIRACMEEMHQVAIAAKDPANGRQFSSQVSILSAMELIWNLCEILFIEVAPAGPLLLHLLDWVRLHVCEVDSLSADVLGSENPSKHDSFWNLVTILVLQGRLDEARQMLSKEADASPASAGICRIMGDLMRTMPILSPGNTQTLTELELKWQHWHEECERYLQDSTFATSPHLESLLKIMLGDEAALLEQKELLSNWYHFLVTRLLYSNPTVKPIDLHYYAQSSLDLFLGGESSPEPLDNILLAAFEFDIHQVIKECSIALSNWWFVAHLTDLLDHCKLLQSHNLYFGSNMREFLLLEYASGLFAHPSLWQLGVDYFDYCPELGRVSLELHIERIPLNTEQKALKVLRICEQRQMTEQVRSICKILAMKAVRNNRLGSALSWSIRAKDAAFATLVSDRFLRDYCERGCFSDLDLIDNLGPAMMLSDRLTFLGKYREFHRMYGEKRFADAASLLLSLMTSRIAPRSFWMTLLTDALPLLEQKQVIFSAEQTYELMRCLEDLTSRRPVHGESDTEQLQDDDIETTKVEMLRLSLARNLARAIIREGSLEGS
Experimental: Interactions between FROUNT and library compounds were analyzed by surface plasmon resonance using a Biacore T100 (GE Healthcare). Full-length FROUNT protein or the FROUNT-binding region of CCR2 was immobilized on the CM5 sensor chip[56]. […] The resonance unit (RU) was measured during the binding and washing periods, and the binding kinetics were analyzed. Solvent correction with DMSO was performed using Biacore T100 evaluation software.

## O=c1[nH]cc(F)c(=O)[nH]1 [5FU]
LLC tumor cells [1]
  viability: affected
LLC tumor cells [2]
  in vitro growth: affected
B16 tumor cells [3]
  in vitro growth: affected
B16 tumor cells [4]
  viability: affected

## COC[C@H]1OC(=O)c2coc3c2[C@@]1(C)C1=C(C3=O)[C@@H]2CCC(=O)[C@@]2(C)C[C@H]1OC(C)=O [wortmannin]
[5]
  migration in response to CCL2 stimulation: inhibited
Peritoneal macrophages
  CCL2-induced pseudopodia protrusion: inhibition

## N#CN [cyanamide]
ALDH
  ALDH inhibition activity: more potently than DSF
FROUNT-CCR2 interaction
  inhibition of FROUNT-CCR2 interaction: did not block
THP-1 cells
  cellular chemotaxis: did not block

## NC(=O)Nc1sc(-c2ccc(F)cc2)cc1C(N)=O [IKK-IV]
LLC tumor cells [1]
  viability: affected
LLC tumor cells [2]
  in vitro growth: affected
B16 tumor cells [3]
  in vitro growth: affected
B16 tumor cells [4]
  viability: affected

## CCN(CC)C(=S)S [DDC, sodium diethyldithiocarbamate]
[6]
  chemical shift perturbations in CRBD: no significant perturbation
[7]
  binding to FROUNT protein: did not bind
